In PMC8972196, “A Set of Experimentally Validated Decoys for the Human CC Chemokine Receptor 7 (CCR7) Obtained by Virtual Screening” (Frontiers in Pharmacology, 2022):
Like-named read-outs stand apart in the source and are kept apart here.

What was measured:
CCR7 = tested on: CCR7; set-up: method as in Jaeger et al., 2019; details: result in words; ref Jaeger et al., 2019; cited from earlier work
human CCR7 = target: T1, human CCR7 (Homo sapiens, UniProt P32248); assay: CCL19-induced calcium mobilization assay, U87.CD4 cells expressing CCR7; format: cell-based; details: for IC50: read-out: IC50 [μM] block CCL19 induced calcium signaling
T1 construct: expressed in transfected cells
T1 sequence (P32248 25-378): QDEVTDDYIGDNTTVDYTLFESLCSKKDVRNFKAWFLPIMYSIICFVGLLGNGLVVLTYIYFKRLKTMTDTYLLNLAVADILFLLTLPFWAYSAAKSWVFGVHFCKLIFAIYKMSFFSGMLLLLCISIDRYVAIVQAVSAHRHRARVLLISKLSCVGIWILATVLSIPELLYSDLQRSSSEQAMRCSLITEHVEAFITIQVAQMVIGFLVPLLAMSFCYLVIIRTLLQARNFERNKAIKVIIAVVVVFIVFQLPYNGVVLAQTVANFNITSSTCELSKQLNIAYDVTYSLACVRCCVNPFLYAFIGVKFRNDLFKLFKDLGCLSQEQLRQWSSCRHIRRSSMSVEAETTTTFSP
Procedure, shortened: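 Calcium mobilization was recorded in U87.CD4 cells stably carrying human CXCR2 (stimulated with CXCL8), CCR7 (stimulated with CCL19) or CCR5. Cells were plated at 20,000 cells/well, cultured overnight at 37°C in 5% CO2, and incubated 45 min at room temperature in the dark before reading.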

[1] = classification of tested compounds as decoy or active
[2] = CCL19-induced calcium signaling
[3] = CCL19 induced calcium signaling
[4] = classification as decoy or active on CCR7

## CC(C)(C)c1ccc(S(=O)(=O)Nc2ccc(Cl)cc2C(=O)c2cc[n+]([O-])cc2)cc1 [Vercirnon]
CCR7
  thermal stabilization of CCR7: completely lacked the ability to thermally stabilize CCR7

## CCOc1ccc(NC(=O)C2CCN(C3=NS(=O)(=O)C(c4ccc(OC)cc4)=C3C)CC2)cc1 [CS-1]
CCR7
  thermal stabilization of CCR7: hits in the thermofluor stability assay, albeit less potent than cmp2105 and navarixin

## Maraviroc [reference compound]
Human CCR7; CCL19-induced, result in words
  CCR7 antagonism in calcium mobilization assay: absence of activity
Human CCR7; [1]
  Decoy – 0 Active – 1: 0
CCR7
  thermal stabilization of CCR7: completely lacked the ability to thermally stabilize CCR7

## CC(C)[C@@H]1OCCC[C@@H]1Nc1cc(N2CC[C@H](OCc3ccccn3)C2)ncn1 [C084, CC(C)[C@@H]1OCCC[C@@H]1Nc1cc(N2CC[C@H](OCc3ccccn3)C2)ncn1]
Human CCR7; [2]
  IC50: > 50 µM
Human CCR7; [1]
  Decoy – 0 Active – 1: 0

## CC[C@@H](NC(=O)N1CCN(C(=O)c2ccccc2)CC1)c1cccc(C)n1 [C161, CC[C@@H](NC(=O)N1CCN(C(=O)c2ccccc2)CC1)c1cccc(C)n1]
Human CCR7; [3]
  IC50: > 50 µM
Human CCR7; [4]
  Decoy – 0 Active – 1: 0

## CCc1ccc(C(NC(=O)NC2C=CC(CO)C2)C(C)(C)C)o1 (stereo not drawn) [C200, CCc1ccc(C(NC(=O)NC2C=CC(CO)C2)C(C)(C)C)o1]
Human CCR7; [3]
  IC50: > 50 µM
Human CCR7; [4]
  Decoy – 0 Active – 1: 0

## COC[C@@H](NC1=NS(=O)(=O)c2ccccc21)c1ccc(C)o1 [C134, COC[C@@H](NC1=NS(=O)(=O)c2ccccc21)c1ccc(C)o1]
Human CCR7; [2]
  IC50: > 50 µM
Human CCR7; [1]
  Decoy – 0 Active – 1: 0

## COc1c(Nc2cc(C(F)(F)F)cc(C(F)(F)F)c2)c(=O)c1=O [C025, O=C1C(OC)=C(NC2=CC(C(F)(F)F)=CC(C(F)(F)F)=C2)C1=O]
Human CCR7; [2]
  IC50: > 30 µM
Human CCR7; [1]
  Decoy – 0 Active – 1: 0

## CS(=O)(=O)c1ccc(-c2cccc(NC(=O)[C@H]3CCCO3)c2)nn1 [C101, CS(=O)(=O)c1ccc(-c2cccc(NC(=O)[C@H]3CCCO3)c2)nn1]
Human CCR7; [2]
  IC50: > 50 µM
Human CCR7; [1]
  Decoy – 0 Active – 1: 0

## CCC1(C(N)=O)CCCN(C(=O)NCc2c(Cl)cccc2Cl)C1 (stereo not drawn) [C165, CCC1(C(N)=O)CCCN(C(=O)NCc2c(Cl)cccc2Cl)C1]
Human CCR7; [3]
  IC50: > 50 µM
Human CCR7; [4]
  Decoy – 0 Active – 1: 0

## COc1ccc(S(=O)(=O)N(CC(=O)NCc2ccccn2)Cc2ccccc2)cc1 [C259, COc1ccc(cc1)S(=O)(=O)N(Cc2ccccc2)CC(=O)NCc3ccccn3]
Human CCR7; [3]
  IC50: > 50 µM
Human CCR7; [4]
  Decoy – 0 Active – 1: 0

## CC1(C)CC(NC(=O)c2cc(O)c3ccccc3c2)C(C)(C)O1 (stereo not drawn) [C178, CC1(C)CC(NC(=O)c2cc(O)c3ccccc3c2)C(C)(C)O1]
Human CCR7; [3]
  IC50: > 50 µM
Human CCR7; [4]
  Decoy – 0 Active – 1: 0

## Cc1ccc(N[C@H]2CS(=O)(=O)C[C@H]2OC(=O)c2ccccc2)cc1 [C120, Cc1ccc(N[C@H]2CS(=O)(=O)C[C@H]2OC(=O)c2ccccc2)cc1]
Human CCR7; [2]
  IC50: > 50 µM
Human CCR7; [1]
  Decoy – 0 Active – 1: 0

## CC1(C)Cc2nc(C(C)(C)C)ncc2C(NC(=O)c2cc(C(F)(F)F)n[nH]2)C1 (stereo not drawn) [C177, CC1(C)Cc2nc(C(C)(C)C)ncc2C(NC(=O)c2cc(C(F)(F)F)n[nH]2)C1]
Human CCR7; [3]
  IC50: > 50 µM
Human CCR7; [4]
  Decoy – 0 Active – 1: 0

## CN(Cc1ccccc1Cl)C(C(=O)O)c1ccc(F)c(CO)c1 (stereo not drawn) [C171, C[NH+](Cc1ccccc1Cl)C(C(=O)[O-])c1ccc(F)c(CO)c1]
Human CCR7; [3]
  IC50: > 50 µM
Human CCR7; [4]
  Decoy – 0 Active – 1: 0

## COc1ccc(N2CCN(c3c(NCc4cccc(Cl)c4)c(=O)c3=O)CC2)cc1 [C002, COc1ccc(N2CCN(c3c(NCc4cccc(Cl)c4)c(=O)c3=O)CC2)cc1]
Human CCR7; [2]
  IC50: > 50 µM
Human CCR7; [1]
  Decoy – 0 Active – 1: 0

## O=c1c(NCc2cc(C(F)(F)F)cc(C(F)(F)F)c2)c(NCc2cc(C(F)(F)F)cc(C(F)(F)F)c2)c1=O [C017, O=C1C(NCC2=CC(C(F)(F)F)=CC(C(F)(F)F)=C2)=C(NCC3=CC(C(F)(F)F)=CC(C(F)(F)F)=C3)C1=O]
Human CCR7; [2]
  IC50: > 50 µM
Human CCR7; [1]
  Decoy – 0 Active – 1: 0

## O=C(NCC(C1CC1)C1CC1)N1CCC(O)(C(F)(F)F)CC1 [C166, O=C(NCC(C1CC1)C1CC1)N1CCC(O)(C(F)(F)F)CC1]
Human CCR7; [3]
  IC50: > 50 µM
Human CCR7; [4]
  Decoy – 0 Active – 1: 0

## O=C1CC(C(=O)NC2CCCc3ccccc32)Cc2nc(NC(=O)C3CCC3)sc21 (stereo not drawn) [C226, O=C1CC(C(=O)NC2CCCc3ccccc32)Cc2nc(NC(=O)C3CCC3)sc21]
Human CCR7; [3]
  IC50: > 50 µM
Human CCR7; [4]
  Decoy – 0 Active – 1: 0

## CCOC(=O)c1sc2ncnc(NC[C@H]3CCCO3)c2c1C [C103, CCOC(=O)c1sc2ncnc(NC[C@H]3CCCO3)c2c1C]
Human CCR7; [2]
  IC50: > 50 µM
Human CCR7; [1]
  Decoy – 0 Active – 1: 0

## O=C(NCc1ccccc1)c1cn(C2CN(C(=O)C3CC3)C2)nn1 [C081, O=C(NCc1ccccc1)c1cn(C2CN(C(=O)C3CC3)C2)nn1]
Human CCR7; [2]
  IC50: > 50 µM
Human CCR7; [1]
  Decoy – 0 Active – 1: 0

## Cc1ccc(C(=O)N2CCC3(CC2)CCC3(C)O)cc1N1CCCC1=O (stereo not drawn) [C224, Cc1ccc(C(=O)N2CCC3(CC2)CCC3(C)O)cc1N1CCCC1=O]
Human CCR7; [3]
  IC50: > 50 µM
Human CCR7; [4]
  Decoy – 0 Active – 1: 0

## OCc1ccccc1NC(=S)NCc1ccccc1 [C038, OCc1ccccc1NC(=S)NCc1ccccc1]
Human CCR7; [2]
  IC50: > 30 µM
Human CCR7; [1]
  Decoy – 0 Active – 1: 0

## Cc1ccccc1NC(=O)c1c(O)nc2ccccc2c1O [C170, Cc1ccccc1NC(=O)c1c(O)nc2ccccc2c1O]
Human CCR7; [3]
  IC50: > 50 µM
Human CCR7; [4]
  Decoy – 0 Active – 1: 0

## CC(=O)N[C@@H](Cc1ccccc1)C(=O)N[C@H](C)c1ccccc1 [C144, CC(=O)N[C@@H](Cc1ccccc1)C(=O)N[C@H](C)c1ccccc1]
Human CCR7; [2]
  IC50: > 50 µM
Human CCR7; [1]
  Decoy – 0 Active – 1: 0

## CNC(=O)c1ccc(C=CC(=O)N(C2CC2)C(C)c2ccco2)cc1 (stereo not drawn) [C055, CNC(=O)c1ccc(C=CC(=O)N(C2CC2)C(C)c2ccco2)cc1]
Human CCR7; [2]
  IC50: > 10 µM
Human CCR7; [1]
  Decoy – 0 Active – 1: 0
